Experiments:
pigweed = assay: Test B pre/postemergence pigweed; type: in vivo, Amaranthus retroflexus
How it was run: (§1)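 Response is a visual 0-to-10 score relative to untreated plants, where 0 means no effect and 10 means complete control, taken twelve to sixteen days after application. Treatments went onto soil at planting and onto foliage of 1- to 4-leaf plants, using a surfactant-containing non-phytotoxic solvent.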

morningglory = assay: Test B pre/postemergence morningglory; type: in vivo, Ipomoea hederacea
How it was run: as §1

surinam grass = assay: Test B pre/postemergence surinam grass; type: in vivo, Brachiaria decumbens
How it was run: as §1

velvetleaf = assay: Test B pre/postemergence velvetleaf; type: in vivo, Abutilon theophrasti
How it was run: as §1

wild oat = assay: Test B pre/postemergence wild oat; type: in vivo, Avena fatua
How it was run: as §1

sugar beet = assay: Test B pre/postemergence sugar beet; type: in vivo, Beta vulgaris
How it was run: as §1

corn = assay: Test B pre/postemergence corn; type: in vivo, Zea mays
How it was run: as §1

soybean = assay: Test B pre/postemergence soybean; type: in vivo, Glycine max
How it was run: as §1

giant foxtail = assay: Test B pre/postemergence giant foxtail; type: in vivo, Setaria faberii
How it was run: as §1

purple nutsedge = assay: Test B pre/postemergence purple nutsedge; type: in vivo, Cyperus rotundus
How it was run: as §1

blackgrass = assay: Test B pre/postemergence blackgrass; type: in vivo, Alopecurus myosuroides
How it was run: as §1

wheat = assay: Test B pre/postemergence wheat; type: in vivo, Triticum aestivum
How it was run: as §1

rape = assay: Test B pre/postemergence rape; type: in vivo, Brassica napus
How it was run: as §1

bedstraw = assay: Test B pre/postemergence bedstraw; type: in vivo, Galium aparine
How it was run: as §1

crabgrass = assay: Test B pre/postemergence crabgrass; type: in vivo, Digitaria sanguinalis
How it was run: as §1

cocklebur = assay: Test B pre/postemergence cocklebur; type: in vivo, Xanthium strumarium
How it was run: as §1

[1] = Postemergence, Rate 62 g/ha, scale of 0 to 10, 0 is no effect, 10 is complete control
[2] = Preemergence, Rate 62 g/ha, scale 0 to 10 (0 no effect, 10 complete control)
[3] = Preemergence, Rate 500 g/ha, scale of 0 to 10 where 0 is no effect and 10 is complete control
[4] = Rate 250 g/ha, Postemergence, scale of 0 to 10 where 0 is no effect and 10 is complete control
[5] = Postemergence, Rate 125 g/ha, scale 0 to 10, 0 is no effect, 10 is complete control
[6] = Postemergence, Rate 500 g/ha, scale 0 to 10, 0 is no effect, 10 is complete control
[7] = Preemergence, Rate 125 g/ha, scale 0 to 10, 0 is no effect, 10 is complete control

CC(C)N(C(=O)n1oc(=O)n(CCC(F)(F)F)c1=O)c1ccc(Cl)cc1 [Compound 554]
Redroot pigweed plant response rating (pigweed; [1]): 0
Redroot pigweed plant response rating (pigweed; [2]): 9
Redroot pigweed plant response rating (pigweed; [3]): 10
Plant response rating, Redroot pigweed (pigweed; [4]): 7
Morningglory plant response rating (morningglory; [1]): 1
Morningglory plant response rating (morningglory; [5]): 2
Plant response rating, Morningglory (morningglory; [6]): 7
Morningglory plant response rating (morningglory; [7]): 0
Morningglory plant response rating (0 to 10 scale) (morningglory; Preemergence, Rate 250 g/ha): 0
Morningglory plant response rating (morningglory; [3]): 0
Plant response rating, Morningglory (morningglory; [4]): 5
B. signalgrass plant response rating (surinam grass; [1]): 0
B. signalgrass plant response rating (surinam grass; [5]): 0
Plant response rating, B. signalgrass (surinam grass; [6]): 3
B. signalgrass plant response rating (surinam grass; [2]): 7
B. signalgrass plant response rating (surinam grass; [7]): 7
B. signalgrass plant response rating (0 to 10 scale, 0 is no effect, 10 is complete control) (surinam grass; Preemergence, Rate 250 g/ha): 6
B. signalgrass plant response rating (surinam grass; [3]): 10
Plant response rating, B. signalgrass (surinam grass; [4]): 0
Velvetleaf plant response rating (velvetleaf; [1]): 0
Plant response rating, Velvetleaf (velvetleaf; [6]): 0
Velvetleaf plant response rating (velvetleaf; [2]): 0
Velvetleaf plant response rating (velvetleaf; [7]): 0
Velvetleaf plant response rating (0 to 10 scale) (velvetleaf; Preemergence, Rate 250 g/ha): 0
Velvetleaf plant response rating (velvetleaf; [3]): 0
Plant response rating, Velvetleaf (velvetleaf; [4]): 0
Wild oats plant response rating (wild oat; [1]): 0
Wild oats plant response rating (wild oat; [2]): 0
Wild oats plant response rating (wild oat; [7]): 2
Wild oats plant response rating (0 to 10 scale) (wild oat; Preemergence, Rate 250 g/ha): 2
Wild oats plant response rating (wild oat; [3]): 9
Plant response rating, Wild oats (wild oat; [4]): 2
Sugarbeets plant response rating (sugar beet; [1]): 0
Sugarbeets plant response rating (sugar beet; [2]): 0
Sugarbeets plant response rating (sugar beet; [7]): 0
Sugarbeets plant response rating (0 to 10 scale) (sugar beet; Preemergence, Rate 250 g/ha): 0
Sugarbeets plant response rating (sugar beet; [3]): 6
Plant response rating, Sugarbeets (sugar beet; [4]): 7
Corn plant response rating (corn; [1]): 0
Corn plant response rating (corn; [5]): 0
Plant response rating, Corn (corn; [6]): 0
Corn plant response rating (corn; [2]): 0
Corn plant response rating (corn; [7]): 0
Corn plant response rating (0 to 10 scale) (corn; Preemergence, Rate 250 g/ha): 0
Corn plant response rating (corn; [3]): 2
Plant response rating, Corn (corn; [4]): 0
Soybean plant response rating (soybean; [1]): 2
Plant response rating, Soybean (soybean; [6]): 3
Soybean plant response rating (soybean; [2]): 0
Soybean plant response rating (soybean; [7]): 0
Soybean plant response rating (0 to 10 scale) (soybean; Preemergence, Rate 250 g/ha): 3
Soybean plant response rating (soybean; [3]): 3
Plant response rating, Soybean (soybean; [4]): 3
Giant foxtail plant response rating (giant foxtail; [1]): 2
Giant foxtail plant response rating (giant foxtail; [5]): 6
Plant response rating, Giant foxtail (giant foxtail; [6]): 8
Giant foxtail plant response rating (giant foxtail; [2]): 9
Giant foxtail plant response rating (giant foxtail; [7]): 9
Giant foxtail plant response rating (0 to 10 scale) (giant foxtail; Preemergence, Rate 250 g/ha): 9
Giant foxtail plant response rating (giant foxtail; [3]): 10
Plant response rating, Giant foxtail (giant foxtail; [4]): 8
Nutsedge plant response rating (purple nutsedge; [1]): 0
Nutsedge plant response rating (purple nutsedge; [5]): 0
Plant response rating, Nutsedge (purple nutsedge; [6]): 0
Nutsedge plant response rating (purple nutsedge; [2]): 0
Nutsedge plant response rating (purple nutsedge; [7]): 0
Nutsedge plant response rating (0 to 10 scale) (purple nutsedge; Preemergence, Rate 250 g/ha): 0
Nutsedge plant response rating (purple nutsedge; [3]): 0
Plant response rating, Nutsedge (purple nutsedge; [4]): 0
Blackgrass plant response rating (blackgrass; [1]): 0
Blackgrass plant response rating (blackgrass; [5]): 3
Blackgrass plant response rating (blackgrass; [7]): 4
Blackgrass plant response rating (0 to 10 scale) (blackgrass; Preemergence, Rate 250 g/ha): 4
Blackgrass plant response rating (blackgrass; [3]): 7
Plant response rating, Blackgrass (blackgrass; [4]): 7
Wheat plant response rating (wheat; [1]): 0
Wheat plant response rating (wheat; [2]): 3
Wheat plant response rating (wheat; [7]): 3
Wheat plant response rating (wheat; [3]): 6
Plant response rating, Wheat (wheat; [4]): 2
Rape plant response rating (rape; [1]): 0
Rape plant response rating (rape; [5]): 0
Plant response rating, Rape (rape; [6]): 3
Rape plant response rating (rape; [2]): 0
Rape plant response rating (rape; [7]): 0
Rape plant response rating (0 to 10 scale) (rape; Preemergence, Rate 250 g/ha): 0
Rape plant response rating (rape; [3]): 3
Plant response rating, Rape (rape; [4]): 0
Bedstraw plant response rating (bedstraw; [1]): 5
Bedstraw plant response rating (bedstraw; [5]): 5
Plant response rating, Bedstraw (bedstraw; [6]): 9
Bedstraw plant response rating (bedstraw; [2]): 0
Bedstraw plant response rating (bedstraw; [7]): 0
Bedstraw plant response rating (0 to 10 scale) (bedstraw; Preemergence, Rate 250 g/ha): 0
Bedstraw plant response rating (bedstraw; [3]): 0
Plant response rating, Bedstraw (bedstraw; [4]): 7
Crabgrass plant response rating (crabgrass; [1]): 0
Plant response rating, Crabgrass (crabgrass; [6]): 9
Crabgrass plant response rating (crabgrass; [2]): 9
Crabgrass plant response rating (crabgrass; [7]): 10
Crabgrass plant response rating (crabgrass; [3]): 10
Plant response rating, Crabgrass (crabgrass; [4]): 9
Cocklebur plant response rating (cocklebur; [1]): 0
Cocklebur plant response rating (cocklebur; [5]): 0
Plant response rating, Cocklebur (cocklebur; [6]): 3
Cocklebur plant response rating (cocklebur; [2]): 0
Cocklebur plant response rating (cocklebur; [7]): 0
Cocklebur plant response rating (0 to 10 scale) (cocklebur; Preemergence, Rate 250 g/ha): 0
Cocklebur plant response rating (cocklebur; [3]): 0
Plant response rating, Cocklebur (cocklebur; [4]): 0
